Assay results published in ChEMBL document CHEMBL5244230, “Artemisinin-derived hybrids and their anticancer activity” (Eur J Med Chem, 2020).

Columns and labels:
A 172 = assay: Cytotoxicity against human A-172 cells assessed as cell growth inhibition measured after 48 hrs by MTT assay; assay type: functional
[1] = Cytotoxicity against human U87 cells assessed as cell growth inhibition measured after 48 hrs by MTT assay; assay type: functional, U-87MG ATCC; settings: U-87 MG
SiHa = assay: Cytotoxicity against human SiHa cells assessed as cell growth inhibition measured after 48 hrs by MTT assay; assay type: functional
HeLa [2] = assay: Cytotoxicity against human HeLa cells assessed as cell growth inhibition measured after 48 hrs by MTT assay; assay type: functional
DLD-1 = assay: Cytotoxicity against human DLD-1 cells assessed as cell growth inhibition measured after 48 hrs by MTT assay; assay type: functional
B16 = assay: Cytotoxicity against mouse B16 cells assessed as cell growth inhibition measured after 48 hrs by MTT assay; assay type: functional
HeLa [3] = assay: Antiproliferative activity against human HeLa cells assessed as reduction in cell viability measured for 72 hrs by MTT assay; assay type: functional, cell-based
MDA-MB-231 = assay: Antiproliferative activity against human MDA-MB-231 cells assessed as reduction in cell viability measured for 72 hrs by MTT assay; assay type: functional, cell-based; settings: MDA-MB-231, 72 h
NCI-H460 = assay: Antiproliferative activity against human NCI-H460 cells assessed as reduction in cell viability measured for 72 hrs by MTT assay; assay type: functional, cell-based; settings: NCI-H460, 72 h
HT-29 = assay: Antiproliferative activity against human HT-29 cells assessed as reduction in cell viability measured for 72 hrs by MTT assay; assay type: functional, cell-based; settings: HT-29, 72 h
A549 = assay: Antiproliferative activity against human A549 cells assessed as reduction in cell viability measured for 72 hrs by MTT assay; assay type: functional, cell-based; settings: A549, 72 h

| SMILES | GI50 (A 172) [nM] | GI50 [1] [nM] | GI50 (SiHa) [nM] | GI50 (HeLa [2]) [nM] | GI50 (DLD-1) [nM] | GI50 (B16) [nM] | IC50 (HeLa [3]) [nM] | IC50 (MDA-MB-231) [nM] | IC50 (NCI-H460) [nM] | IC50 (HT-29) [nM] | IC50 (A549) [nM] |
| --- | --- | --- | --- | --- | --- | --- | --- | --- | --- | --- | --- |
| C[C@@H]1CC[C@H]2[C@@H](C)C(n3cc(-c4ccc(F)cc4)nn3)O[C@@H]3O[C@@]4(C)CC[C@@H]1[C@]32OO4 (stereo partly specified) | 50 | 50 | 50 | 50 | 50 | 50 |  |  |  |  |  |
| Cc1ccc(-c2cn(C3O[C@@H]4O[C@@]5(C)CC[C@H]6[C@H](C)CC[C@@H]([C@H]3C)[C@@]46OO5)nn2)cc1 (stereo partly specified) | 50 | 50 | 50 | 50 | 50 | 50 |  |  |  |  |  |
| C[C@H]1[C@H](n2nncc2-c2ccc(F)cc2)O[C@@H]2O[C@@]3(C)CC[C@H]4[C@H](C)CC[C@@H]1[C@@]24OO3 | 40 | 40 | 40 | 40 | 40 | 40 |  |  |  |  |  |
| C[C@@H]1CC[C@H]2[C@@H](C)C(n3cc(-c4cccc(Cl)c4)nn3)O[C@@H]3O[C@@]4(C)CC[C@@H]1[C@]32OO4 (stereo partly specified) | 50 | 50 | 50 | 50 | 50 | 50 |  |  |  |  |  |
| Cc1ccc(-c2cnnn2[C@@H]2O[C@@H]3O[C@@]4(C)CC[C@H]5[C@H](C)CC[C@@H]([C@H]2C)[C@@]35OO4)cc1 | 40 | 40 | 40 | 40 | 40 | 40 |  |  |  |  |  |
| C[C@H]1[C@H](n2nncc2-c2ccccc2C(F)(F)F)O[C@@H]2O[C@@]3(C)CC[C@H]4[C@H](C)CC[C@@H]1[C@@]24OO3 | 40 | 40 | 40 | 40 | 40 | 40 |  |  |  |  |  |
| C[C@H]1[C@H](n2nncc2-c2ccc(Cl)cc2)O[C@@H]2O[C@@]3(C)CC[C@H]4[C@H](C)CC[C@@H]1[C@@]24OO3 | 40 | 40 | 40 | 40 | 40 | 40 |  |  |  |  |  |
| C[C@H]1[C@H](n2nncc2-c2cc(F)cc(F)c2)O[C@@H]2O[C@@]3(C)CC[C@H]4[C@H](C)CC[C@@H]1[C@@]24OO3 | 40 | 40 | 40 | 40 | 40 | 40 |  |  |  |  |  |
| C[C@@H]1[C@@H](n2cc(-c3cc(F)cc(F)c3)nn2)O[C@@H]2O[C@@]3(C)CC[C@H]4[C@H](C)CC[C@@H]1[C@@]24OO3 | 30 | 30 | 30 | 30 | 30 | 30 |  |  |  |  |  |
| COc1ccc(-c2cnnn2[C@@H]2O[C@@H]3O[C@@]4(C)CC[C@H]5[C@H](C)CC[C@@H]([C@H]2C)[C@@]35OO4)cc1 | 40 | 40 | 40 | 40 | 40 | 40 |  |  |  |  |  |
| C[C@H]1[C@@H](n2cc(-c3ccccc3)nn2)O[C@@H]2O[C@@]3(C)CC[C@H]4[C@H](C)CC[C@@H]1[C@@]24OO3 | 130 | 130 | 130 | 130 | 130 | 130 |  |  |  |  |  |
| CCCCCc1ccc(-c2cnnn2[C@@H]2O[C@@H]3O[C@@]4(C)CC[C@H]5[C@H](C)CC[C@@H]([C@H]2C)[C@@]35OO4)cc1 | 40 | 40 | 40 | 40 | 40 | 40 |  |  |  |  |  |
| COc1ccc(-c2cn([C@@H]3O[C@@H]4O[C@@]5(C)CC[C@H]6[C@H](C)CC[C@@H]([C@H]3C)[C@@]46OO5)nn2)cc1 | 50 | 50 | 50 | 50 | 50 | 50 |  |  |  |  |  |
| C[C@@H]1[C@@H](n2cc(-c3ccccc3)nn2)O[C@@H]2O[C@@]3(C)CC[C@H]4[C@H](C)CC[C@@H]1[C@@]24OO3 | 30 | 30 | 30 | 30 | 30 | 30 |  |  |  |  |  |
| C[C@H]1[C@H](n2cc(-c3ccccc3)nn2)O[C@@H]2O[C@@]3(C)CC[C@H]4[C@H](C)CC[C@@H]1[C@@]24OO3 | 50 | 50 | 50 | 50 | 50 | 50 |  |  |  |  |  |
| C[C@@H]1[C@@H](n2cc(-c3ccccc3C(F)(F)F)nn2)O[C@@H]2O[C@@]3(C)CC[C@H]4[C@H](C)CC[C@@H]1[C@@]24OO3 | 30 | 30 | 30 | 30 | 30 | 30 |  |  |  |  |  |
| C[C@H]1[C@H](n2cc(-c3cc(F)cc(F)c3)nn2)O[C@@H]2O[C@@]3(C)CC[C@H]4[C@H](C)CC[C@@H]1[C@@]24OO3 | 50 | 50 | 50 | 50 | 50 | 50 |  |  |  |  |  |
| C[C@H]1[C@H](n2cc(-c3ccccc3C(F)(F)F)nn2)O[C@@H]2O[C@@]3(C)CC[C@H]4[C@H](C)CC[C@@H]1[C@@]24OO3 | 50 | 50 | 50 | 50 | 50 | 50 |  |  |  |  |  |
| CCCCCc1ccc(-c2cn([C@H]3O[C@@H]4O[C@@]5(C)CC[C@H]6[C@H](C)CC[C@@H]([C@@H]3C)[C@@]46OO5)nn2)cc1 | 30 | 30 | 30 | 30 | 30 | 30 |  |  |  |  |  |
| CCCCCc1ccc(-c2cn([C@@H]3O[C@@H]4O[C@@]5(C)CC[C@H]6[C@H](C)CC[C@@H]([C@H]3C)[C@@]46OO5)nn2)cc1 | 50 | 50 | 50 | 50 | 50 | 50 |  |  |  |  |  |
| C[C@@H]1[C@@H](n2cc(-c3cccc(Cl)c3)nn2)O[C@@H]2O[C@@]3(C)CC[C@H]4[C@H](C)CC[C@@H]1[C@@]24OO3 | 30 | 30 | 30 | 30 | 30 | 30 |  |  |  |  |  |
| C[C@H]1[C@@H](NC(=O)COCc2ccc(/C=C/C(=O)c3ccc(Cl)cc3)cc2)O[C@@H]2O[C@@]3(C)CC[C@H]4[C@H](C)CC[C@@H]1[C@@]24OO3 |  |  |  |  |  |  | 1700 | 1700 | 1700 | 1700 | 1700 |
| C[C@H]1[C@@H](NC(=O)COCc2ccc(C(=O)/C=C/c3ccc(S(C)(=O)=O)cc3)cc2)O[C@@H]2O[C@@]3(C)CC[C@H]4[C@H](C)CC[C@@H]1[C@@]24OO3 |  |  |  |  |  |  | 90 | 90 | 90 | 90 | 90 |
| C[C@H]1[C@H](NC(=O)COCc2ccc(C(=O)/C=C/c3ccc(OC(F)(F)F)cc3)cc2)O[C@@H]2O[C@@]3(C)CC[C@H]4[C@H](C)CC[C@@H]1[C@@]24OO3 |  |  |  |  |  |  | 100 | 100 | 100 | 100 | 100 |
